Series [1] deals with methicillin-resistant Staphylococcus aureus (MRSA) CBD-635. Kind of series: Broth dilution MIC assay against clinical MRSA strain. Format: cell-based. From the text: (§1) Spongian diterpenes are well known as bioactive natural products. Darwinolide was screened for activity against a clinical strain of a highly resistant Staphylococcus aureus (MRSA). […] The remaining colony was subjected to a cell recovery experiment overnight after washout of darwinolide. […] Based on the 4-fold selectivity of darwinolide for MRSA biofilms over planktonic cells, and its low mammalian cytotoxicity, darwinolide presents a highly suitable scaffold for the development of urgently needed, novel anti-biofilm-specific antibiotics.
(§2) A clinical, multi-drug resistant strain of MRSA (CBD-635) was used in these studies for minimum inhibitory concentration (MIC) determination and assessment of anti-biofilm properties, all as described previously (Fleeman et al., J. Med. Chem. 2015, 58, 3340-3355).
On the technique in general: Dilution methods test growth across graded concentrations, often in twofold steps.

Series [2] shares this test system. The series is classed as cell-based.
Text: as §1, §2

In another series the test system is MRSA biofilm (CBD-635). The series can be described thus: In vitro MRSA biofilm assay. Format: cell-based, Staphylococcus aureus.
Text: as §1, §2

Series [3] can be described thus: Cytotoxicity assay (MTS, 72 h) in J774 macrophage cell line. The series is classed as cell-based. Conditions: mouse, J774.A-1 macrophage cell line.
Text: as §1
The J774.A-1 cell line was used for cytotoxicity screening via a colorometric method employing a tetrazolium derivative [3-(4,5-dimethylthiazol-2-yl)-5-(3-carboxymethoxyphenyl)-2-(4-sulfophenyl)-2H-tetrazolium] (MTS) 72 h assay using 50000 […] per well, and an electron-coupling reagent, and penazine methosulphate (PMS) were used in the assay. IC50 values were calculated from sigmoidal inhibition curves using SigmaPlot 11.0 software (von Salm et al., J. Org. Lett. 2014, 16, 2630-2633).

In brackets after ≈: the same amount, converted by molar mass.

Take `CC(=O)O[C@@H]1O[C@H]2OC(=O)C3=C(C)[C@@H]([C@@]4(C)CCCC(C)(C)C4)CC[C@@H]1[C@H]32` [darwinolide]: it took 133 µM (≈ 50 µg/mL) to inhibit growth in series [1] (MIC). Moreover, the “cytotoxic or cytostatic toward S. aureus” value in series [2] (conclusion from cell recovery experiment) is reported as “cytotoxic, rather than cytostatic”. In addition, the “treated bacterium able to recover and grow” value in series [2] (overnight recovery after washout of darwinolide, colony remaining from MIC assay) is reported as 1.6%. In the series with MRSA biofilm (CBD-635) (Staphylococcus aureus, biofilm established in vitro with same MRSA strain, read-out: IC50 against the biofilm), the IC50 (as a rule, the midpoint of a concentration-inhibition curve) amounted to 33.2 µM. In addition, the “selectivity for MRSA biofilms over planktonic cells” value in the series with MRSA biofilm (CBD-635) (biofilm IC50 vs planktonic MIC) was 4 fold. The IC50 at 72 h in series [3] was 73.4 µM.
